Consider 19 compounds from patent US10526316B2, “Quinoxaline and pyridopyrazine derivatives as PI3Kβ inhibitors” (Janssen Pharmaceutica NV, priority 2015, dated 2020).

As a reminder, the IC50 is the concentration at which inhibition is half-maximal. The term Kd denotes a measure of binding affinity in units of concentration.

In assay [1] the test system is Akt phosphorylated at Ser473 in PC-3 cells. Kind of assay: Cellular assay: phosphorylation of Akt at Ser473 in PC-3 cells (MSD ELISA). Type of assay: cell-based. To be noted: PC-3 cells, 60 min compound incubation, MSD ELISA, read-out: IC50 pAkt_S473. An outline of the steps: (§1)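 Electrochemiluminescent sandwich ELISA read-out: phospho-specific capture (Ser473 or Thr308), Sulfo-tag anti-total Akt detection, signal proportional to phospho-Akt. Cells treated 60 min at 37° C with compound, DMSO 0.3%. IC50 fitted from five concentrations.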
A general note: In an ELISA, binding on a coated surface is turned into a signal by an enzyme label.

Assay [2] concerns the target T1, PI3Kδ (Homo sapiens, UniProt O00329).
T1 construct: purchased DiscoveRx Corporation, San Diego (contract service, KINOMEscan)
T1 sequence (O00329 1-1044): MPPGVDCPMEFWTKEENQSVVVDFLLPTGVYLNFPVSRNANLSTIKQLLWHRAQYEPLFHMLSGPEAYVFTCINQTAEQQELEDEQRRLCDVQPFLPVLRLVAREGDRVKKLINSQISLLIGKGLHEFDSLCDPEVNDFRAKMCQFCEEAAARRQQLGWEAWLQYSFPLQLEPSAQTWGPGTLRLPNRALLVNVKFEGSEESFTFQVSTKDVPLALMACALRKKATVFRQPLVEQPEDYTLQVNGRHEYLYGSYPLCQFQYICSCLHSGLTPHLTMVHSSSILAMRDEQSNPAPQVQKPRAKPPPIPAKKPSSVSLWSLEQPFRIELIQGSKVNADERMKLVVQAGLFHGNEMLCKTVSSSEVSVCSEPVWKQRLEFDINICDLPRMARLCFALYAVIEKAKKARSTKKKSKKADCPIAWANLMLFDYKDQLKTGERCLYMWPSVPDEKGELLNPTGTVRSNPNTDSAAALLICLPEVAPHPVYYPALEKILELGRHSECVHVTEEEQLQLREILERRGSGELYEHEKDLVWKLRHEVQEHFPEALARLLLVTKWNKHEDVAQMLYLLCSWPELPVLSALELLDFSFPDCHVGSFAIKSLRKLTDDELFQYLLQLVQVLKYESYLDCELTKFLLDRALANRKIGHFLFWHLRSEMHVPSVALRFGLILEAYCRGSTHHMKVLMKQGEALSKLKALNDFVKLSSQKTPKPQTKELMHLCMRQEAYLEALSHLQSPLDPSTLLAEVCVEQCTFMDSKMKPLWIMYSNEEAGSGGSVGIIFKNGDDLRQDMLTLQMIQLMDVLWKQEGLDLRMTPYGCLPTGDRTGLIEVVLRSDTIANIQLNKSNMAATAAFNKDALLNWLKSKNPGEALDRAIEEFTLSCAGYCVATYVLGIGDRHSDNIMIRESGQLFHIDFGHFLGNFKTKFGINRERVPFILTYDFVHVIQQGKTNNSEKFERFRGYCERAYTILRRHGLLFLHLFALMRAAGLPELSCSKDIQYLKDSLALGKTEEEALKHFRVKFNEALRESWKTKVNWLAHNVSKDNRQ
Kind of assay: Enzyme binding assay (KINOMEscan, DiscoveRx). The following applies: PIK3Cδ_h. An outline of the steps:
(§2)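 KINOMEscan readout; values are kinase binding affinities.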

Assay [3] concerns the target T2, kinase enzymes (Homo sapiens, UniProt P42345).
T2 construct: purchased DiscoveRx Corporation, San Diego (contract service, KINOMEscan)
Nature of the assay: Enzyme binding assay (KINOMEscan, DiscoveRx), further kinases of Table A. The following applies: MTOR_h. The gist of the method: as §2

Assay [4] deals with T3, kinase enzymes (Homo sapiens, UniProt P48736).
T3 construct: purchased DiscoveRx Corporation, San Diego (contract service, KINOMEscan)
Described as above. To be noted: PIK3Cγ_h. The gist of the method:
as §2

The target of assay [5] is T4, kinase enzymes (Homo sapiens, UniProt P42336).
T4 construct: purchased DiscoveRx Corporation, San Diego (contract service, KINOMEscan)
Described as above. To be noted: PIK3Cα_h. An outline of the steps: as §2

For assay [6], the system named is Akt phosphorylated at Thr308 in PC-3 cells. Nature of the assay: Cellular assay: phosphorylation of Akt at Thr308 in PC-3 cells (MSD ELISA). It is filed as cell-based. To be noted: PC-3 cells, 60 min compound incubation, MSD ELISA, read-out: IC50 pAkt_Thr308. The gist of the method:
as §1

The target in assay [7] is T5, PI3Kβ (Homo sapiens, UniProt P42338).
T5 construct: purchased DiscoveRx Corporation, San Diego (contract service, KINOMEscan)
Nature of the assay: Enzyme binding assay (KINOMEscan, DiscoveRx). The following applies: PIK3Cβ_h, read-out: Kd PIK3Cβ_h. The gist of the method: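 KINOMEscan binding platform; read-out is the inhibitor binding constant Kd (nM).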

Read-outs that look alike come from different tables or passages of the source.

T3 sequence (P48736 whole entry): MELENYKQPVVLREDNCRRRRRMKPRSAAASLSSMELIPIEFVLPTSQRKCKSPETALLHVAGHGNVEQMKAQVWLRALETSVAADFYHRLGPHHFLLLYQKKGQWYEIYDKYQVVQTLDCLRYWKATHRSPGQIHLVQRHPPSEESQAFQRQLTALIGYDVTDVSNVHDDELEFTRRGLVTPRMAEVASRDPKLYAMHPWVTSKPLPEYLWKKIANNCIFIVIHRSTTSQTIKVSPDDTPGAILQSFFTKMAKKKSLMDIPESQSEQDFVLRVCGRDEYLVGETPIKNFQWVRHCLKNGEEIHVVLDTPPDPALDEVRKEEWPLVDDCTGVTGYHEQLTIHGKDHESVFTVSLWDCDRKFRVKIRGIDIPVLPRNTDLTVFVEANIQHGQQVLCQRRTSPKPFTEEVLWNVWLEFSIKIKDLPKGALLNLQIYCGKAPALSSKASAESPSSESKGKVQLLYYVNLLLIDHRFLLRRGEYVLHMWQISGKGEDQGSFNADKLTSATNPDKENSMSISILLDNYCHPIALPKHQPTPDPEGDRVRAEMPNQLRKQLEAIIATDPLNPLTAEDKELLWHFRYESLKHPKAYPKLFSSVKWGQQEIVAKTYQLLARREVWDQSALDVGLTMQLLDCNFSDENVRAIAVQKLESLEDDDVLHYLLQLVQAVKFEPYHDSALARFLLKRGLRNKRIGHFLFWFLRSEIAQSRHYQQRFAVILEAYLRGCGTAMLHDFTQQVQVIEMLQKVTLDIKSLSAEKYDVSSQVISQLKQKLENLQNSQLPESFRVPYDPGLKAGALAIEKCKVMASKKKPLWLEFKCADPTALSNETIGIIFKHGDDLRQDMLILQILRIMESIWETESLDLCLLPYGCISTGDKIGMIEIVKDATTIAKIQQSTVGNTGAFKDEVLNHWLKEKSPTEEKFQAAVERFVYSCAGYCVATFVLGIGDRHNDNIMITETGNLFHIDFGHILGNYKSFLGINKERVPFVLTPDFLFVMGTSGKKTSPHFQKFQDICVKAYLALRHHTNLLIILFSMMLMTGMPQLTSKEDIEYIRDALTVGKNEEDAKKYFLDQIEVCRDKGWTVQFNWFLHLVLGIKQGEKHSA
T4 sequence (P42336 whole entry): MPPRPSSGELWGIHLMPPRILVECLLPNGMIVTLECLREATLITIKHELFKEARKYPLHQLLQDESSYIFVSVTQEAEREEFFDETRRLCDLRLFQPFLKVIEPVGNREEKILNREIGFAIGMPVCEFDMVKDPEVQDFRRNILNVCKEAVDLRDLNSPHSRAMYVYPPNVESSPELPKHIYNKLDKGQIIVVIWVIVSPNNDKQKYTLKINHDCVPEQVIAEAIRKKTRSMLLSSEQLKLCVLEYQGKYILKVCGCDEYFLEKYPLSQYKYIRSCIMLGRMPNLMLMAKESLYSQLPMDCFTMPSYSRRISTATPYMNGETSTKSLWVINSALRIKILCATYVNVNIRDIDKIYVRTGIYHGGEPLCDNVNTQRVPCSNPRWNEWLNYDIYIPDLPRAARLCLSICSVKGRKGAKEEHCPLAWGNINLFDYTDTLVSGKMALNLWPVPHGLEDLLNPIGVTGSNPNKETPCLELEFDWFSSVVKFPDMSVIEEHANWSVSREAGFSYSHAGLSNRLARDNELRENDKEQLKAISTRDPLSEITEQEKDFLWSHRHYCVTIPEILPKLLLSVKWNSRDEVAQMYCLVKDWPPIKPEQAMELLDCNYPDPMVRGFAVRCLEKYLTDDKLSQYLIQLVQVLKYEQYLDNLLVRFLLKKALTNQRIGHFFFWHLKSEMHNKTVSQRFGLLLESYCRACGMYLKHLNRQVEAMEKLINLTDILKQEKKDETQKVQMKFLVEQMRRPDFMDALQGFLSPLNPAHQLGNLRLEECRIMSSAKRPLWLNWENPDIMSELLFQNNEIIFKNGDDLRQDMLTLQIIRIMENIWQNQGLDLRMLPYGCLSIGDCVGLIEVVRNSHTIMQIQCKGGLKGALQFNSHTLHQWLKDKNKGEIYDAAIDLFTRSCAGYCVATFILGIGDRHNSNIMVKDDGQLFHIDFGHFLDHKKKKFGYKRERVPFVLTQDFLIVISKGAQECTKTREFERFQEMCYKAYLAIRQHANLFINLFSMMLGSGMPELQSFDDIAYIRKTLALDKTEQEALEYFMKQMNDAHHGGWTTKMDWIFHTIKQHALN
T5 sequence (P42338 whole entry): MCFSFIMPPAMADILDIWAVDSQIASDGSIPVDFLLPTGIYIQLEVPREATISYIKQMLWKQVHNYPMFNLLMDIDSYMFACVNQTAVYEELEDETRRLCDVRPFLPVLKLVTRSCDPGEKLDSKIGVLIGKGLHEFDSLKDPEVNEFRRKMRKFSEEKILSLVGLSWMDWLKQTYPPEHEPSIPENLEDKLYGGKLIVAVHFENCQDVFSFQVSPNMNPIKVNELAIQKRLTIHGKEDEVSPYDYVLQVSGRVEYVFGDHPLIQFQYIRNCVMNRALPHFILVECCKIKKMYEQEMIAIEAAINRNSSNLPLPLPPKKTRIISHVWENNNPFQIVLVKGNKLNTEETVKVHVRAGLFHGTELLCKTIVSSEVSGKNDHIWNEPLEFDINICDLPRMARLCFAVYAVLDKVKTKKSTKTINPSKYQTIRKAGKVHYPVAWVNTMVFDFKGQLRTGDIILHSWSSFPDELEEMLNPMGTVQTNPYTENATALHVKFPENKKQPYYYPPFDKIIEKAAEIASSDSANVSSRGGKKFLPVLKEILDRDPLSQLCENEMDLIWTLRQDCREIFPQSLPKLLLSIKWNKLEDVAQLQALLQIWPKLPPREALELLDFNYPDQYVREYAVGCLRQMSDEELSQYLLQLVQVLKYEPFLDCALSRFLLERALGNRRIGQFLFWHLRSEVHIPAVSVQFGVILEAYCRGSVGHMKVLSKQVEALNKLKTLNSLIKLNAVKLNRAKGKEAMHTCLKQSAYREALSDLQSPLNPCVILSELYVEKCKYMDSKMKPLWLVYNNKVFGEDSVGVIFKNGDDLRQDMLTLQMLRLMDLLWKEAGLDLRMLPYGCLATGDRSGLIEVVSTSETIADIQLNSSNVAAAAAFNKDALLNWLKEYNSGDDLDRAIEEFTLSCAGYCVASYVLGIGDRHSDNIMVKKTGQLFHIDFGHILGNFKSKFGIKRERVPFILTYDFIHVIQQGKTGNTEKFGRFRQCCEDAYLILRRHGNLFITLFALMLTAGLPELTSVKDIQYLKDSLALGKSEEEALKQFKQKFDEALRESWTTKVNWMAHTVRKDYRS

For `CN[C@H]1CCN(C(=O)c2cc(C(C)Oc3cc(F)c(F)c(F)c3)c3nc(N4CCOCC4)cnc3c2)C1` (single isomer, unassigned) [Compound 405a], the IC50 in assay [1] and in assay [6] was above 513 nM each time. Moreover, the Kd is 7410 nM in assay [2]; above 30200 nM in assay [3]; above 30200 nM in assay [4]; above 30200 nM in assay [5]; 501 nM in assay [7].

As to `CN[C@H]1CCN(C(=O)c2cc(C(C)Oc3cc(F)c(F)c(F)c3)c3nc(N4CCOCC4)cnc3c2)C1` (single isomer, unassigned) [Compound 405b], the 50% inhibitory concentration (IC50) in assay [1] is 44 nM; in assay [6], 33 nM. Moreover, the Kd in assay [2] came to 219 nM; in assay [3], 20900 nM; in assay [4], 4680 nM; in assay [5], 5010 nM; in assay [7], 1 nM.

In the case of `CNCCNC(=O)c1cc(C(C)Nc2cc(F)cc(F)c2)c2nc(N3CCOCC3)cnc2c1` (single isomer, unassigned) [Compound 406b], the IC50 in assay [1] and in assay [6] was above 513 nM in each case. Also, the Kd in assay [2] was 3470 nM; in assay [3], above 30200 nM; in assay [4], 3800 nM; in assay [5], 7410 nM; in assay [7], 141 nM.

Take `CN(C)C(=O)c1cc([C@H]2CCCN2c2cc(F)cc(F)c2)c2nc(N3CCOCC3)cnc2c1` [Compound 1]: the IC50 came out at 2 nM in assay [1] and 3 nM in assay [6]. In addition, the Kd in assay [2] was determined as 15 nM; in assay [3], 28200 nM; in assay [4], 313 nM; in assay [5], 34 nM; in assay [7], 0.3 nM.

In the case of `C[C@@H]1CN(c2cnc3cc(C(=O)N(C)C)cc(C4CCCN4c4cc(F)cc(F)c4)c3n2)CCO1` (stereo partly shown) [Compound 3], the values for the IC50 in assay [1] and in assay [6] were 3 nM and around 3 nM, respectively. Moreover, the Kd in assay [2] was determined as 20 nM; in assay [3], 17800 nM; in assay [4] it was 229 nM; in assay [5] it was 47 nM; in assay [7], 1 nM.

As to `C[C@@H]1CN(c2cnc3cc(C(=O)N(C)C)cc(C4CCCN4c4cc(F)cc(F)c4)c3n2)CCO1` (stereo partly shown) [Compound 4], the IC50 in assay [1] (Homo sapiens, PC-3, 1 h) was above 513 nM; in assay [6] (Homo sapiens, PC-3, 1 h) it was above 513 nM. Also, the Kd in assay [2] is 22900 nM; in assay [3], above 30200 nM; in assay [4] it was above 30200 nM; in assay [5] it was 23400 nM; in assay [7] it was 1700 nM.

For the compound `CC(Nc1cc(F)cc(F)c1)c1cc(C(=O)N2CCOCC2)cc2ncc(N3CCOCC3)nc12` (stereo not shown) [Compound 7], the figures for the 50% inhibitory concentration (IC50) in assay [1] and in assay [6] were 42 nM and 21 nM, respectively. Also, the Kd in assay [2] is 245 nM; in assay [3], above 30200 nM; in assay [4] it was 10000 nM; in assay [5], 513 nM; in assay [7], 2 nM.

Regarding `Fc1cc(F)cc(N2CCCC2c2cncc3ncc(N4CCOCC4)nc23)c1` (stereo not shown) [Compound 23], the IC50 is around 68 nM in assay [1] (Homo sapiens, PC-3, 1 h) and 42 nM in assay [6] (Homo sapiens, PC-3, 1 h). Moreover, the Kd in assay [2] is 331 nM; in assay [3], 15100 nM; in assay [4] it was 724 nM; in assay [5], 324 nM; in assay [7], 1 nM.

As for `CC1CN(c2cnc3cc(C(=O)N(C)C)cc(C4CCCN4c4cc(F)cc(F)c4)c3n2)CCO1` (stereo not shown) [Compound 36], the IC50 in assay [1] (Homo sapiens, PC-3, 1 h) was 10 nM; in assay [6] (Homo sapiens, PC-3, 1 h), 5 nM. For the same compound, the Kd is 107 nM in assay [2]; 15800 nM in assay [3]; 1590 nM in assay [4]; 224 nM in assay [5]; 2 nM in assay [7].

Consider `CC(Oc1cc(F)cc(F)c1)c1cc(C(=O)N(C)C)cc2ncc(N3CCOCC3)nc12` (stereo not shown) [Compound 53], for which the IC50 in assay [1] (Homo sapiens, PC-3, 1 h) came to 214 nM; in assay [6] (Homo sapiens, PC-3, 1 h), 148 nM. Besides, the Kd in assay [2] was 692 nM; in assay [3] it was above 30200 nM; in assay [4], 21400 nM; in assay [5] it was 2950 nM; in assay [7] it was 3 nM.

On to `CC(Oc1cc(F)ccc1NCCN)c1cc(C(=O)N(C)C)cc2ncc(N3CCOCC3)nc12` (stereo not shown) [Compound 79], for which the IC50 in assay [1] (Homo sapiens, PC-3, 1 h) was found to be 158 nM; in assay [6] (Homo sapiens, PC-3, 1 h) it was 123 nM. Besides, the Kd was 204 nM in assay [2]; above 30200 nM in assay [3]; 20000 nM in assay [4]; 2290 nM in assay [5]; 2 nM in assay [7].

For the compound `CC(Nc1cccc(F)c1)c1cc(C(=O)N(C)C)cc2ncc(N3CCOCC3)nc12` (stereo not shown) [Compound 85], the IC50 in assay [1] (Homo sapiens, PC-3, 1 h) turned out to be 48 nM; in assay [6] (Homo sapiens, PC-3, 1 h), 78 nM. Also, the Kd in assay [2] was found to be 41 nM; in assay [3], 562 nM; in assay [4] it was 1660 nM; in assay [5], 257 nM; in assay [7], 0.3 nM.

On to `CCN1CCN(C(=O)c2cc(C(C)Oc3cccc(F)c3)c3nc(N4CCOCC4)cnc3c2)CC1` (stereo not shown) [Compound 90], for which the IC50 in assay [1] (Homo sapiens, PC-3, 1 h) is above 513 nM; in assay [6] (Homo sapiens, PC-3, 1 h) it was above 513 nM. Also, the dissociation constant Kd in assay [2] was 741 nM; in assay [3], above 30200 nM; in assay [4], 22900 nM; in assay [5] it was 9120 nM; in assay [7], 17 nM.

`COC(=O)c1cc(C(C)Nc2cc(F)cc(Cl)c2)c2nc(N3CCOCC3)cnc2c1` (stereo not shown) [Compound 99]: the IC50 was above 513 nM in assay [1] (Homo sapiens, PC-3, 1 h) and 355 nM in assay [6] (Homo sapiens, PC-3, 1 h). In addition, the Kd in assay [2] was 4680 nM; in assay [3], above 30200 nM; in assay [4] it was 11500 nM; in assay [5] it was 9770 nM; in assay [7] it was 52 nM.

Consider `CC(Nc1cccc(F)c1)c1cc(CO)cc2ncc(N3CCOCC3)nc12` (stereo not shown) [Compound 100], for which the IC50 in assay [1] (Homo sapiens, PC-3, 1 h) turned out to be 145 nM; in assay [6] (Homo sapiens, PC-3, 1 h) it was 68 nM. For the same compound, the Kd was 295 nM in assay [2]; 14100 nM in assay [3]; 1740 nM in assay [4]; 1290 nM in assay [5]; 1 nM in assay [7].

Consider `CNCCNC(=O)c1cc([C@@H](C)Oc2cccc(F)c2)c2nc(N3CCOCC3)cnc2c1` [Compound 122], for which the IC50 in assay [1] came out at 40 nM; in assay [6] it was 26 nM. The Kd turned out to be 151 nM in assay [2]; 25700 nM in assay [3]; 5620 nM in assay [4]; 2880 nM in assay [5]; 0.3 nM in assay [7].

For `CNCCNC(=O)c1cc([C@H](C)Oc2cccc(F)c2)c2nc(N3CCOCC3)cnc2c1` [Compound 123], the IC50 in assay [1] (Homo sapiens, PC-3, 1 h) is above 513 nM; in assay [6] (Homo sapiens, PC-3, 1 h), above 513 nM. The Kd came out at 2240 nM in assay [2]; 16600 nM in assay [3]; 12600 nM in assay [4]; 9330 nM in assay [5]; 91 nM in assay [7].

Consider `CC(c1cc(C(=O)N(C)C)cc2ncc(N3CCOCC3)nc12)N(C)c1cccc(Cl)c1` (stereo not shown) [Compound 141], for which the IC50 came out at 182 nM in assay [1] (Homo sapiens, PC-3, 1 h) and 102 nM in assay [6] (Homo sapiens, PC-3, 1 h). Further, the Kd in assay [2] is 776 nM; in assay [3], above 30200 nM; in assay [4], 8130 nM; in assay [5] it was 6610 nM; in assay [7] it was 6 nM.

`CC(Nc1cc(F)cc(F)c1)c1cc(C(=O)N2CC3(C2)CS(=O)(=O)C3)cc2ncc(N3CCOCC3)nc12` (stereo not shown) [Compound 148]: the IC50 in assay [1] (Homo sapiens, PC-3, 1 h) came to 68 nM; in assay [6] (Homo sapiens, PC-3, 1 h), 30 nM. Moreover, the Kd is 316 nM in assay [2]; above 30200 nM in assay [3]; 8130 nM in assay [4]; 1070 nM in assay [5]; 1 nM in assay [7].
